According to patent EP0016371A1, “Urea derivatives, process and intermediates for their preparation, medicaments containing such a urea derivative and its therapeutical use” (F. HOFFMANN-LA ROCHE & CO. Aktiengesellschaft, priority 1979, dated 1980):

Key:
Assay type in all cases: in vivo
Füllinsdorfer Ratten = test: Conflict test in rats (single-lever Skinner box, food pellet reward combined with foot shock); details: Rattus norvegicus; female rats, by gavage half an hour before the one-hour main test, Wilcoxon test vs. saline pretreatment; read-out: erste signifikant anxiolytisch wirksame Dosis
Procedure: Die Testapparatur ist eine Eintasten-Skinnerbox mit Futterpillengeber.
Während 3 einstündigen Vorversuchen (an drei verschiedenen Tagen) werden hungrige weibliche Füllinsdorfer Ratten (SPF, 190-230 g) darauf trainiert, die Tast des Futterpillengebers zu drücken, um Futterpillen von je 45 mg zu erhalten (jeder Tastendruck wird belohnt); im dritten Vorversuch erreichen die Ratten eine Rate von 150-200 Tastenbetätigungen pro Stunde.
In einem vierten Vorversuch wird jede durch Tastendruck hervorgerufene Pillenbelohnung mit einem kurzen elektrischen Fuss-Schock (1,0 mA) kombiniert. Die Ratten, welche mit dieser Konflikt-Situation konfrontiert sind, betätigen anfangs noch etwa 5-10mal die Drucktaste und hören dann aus Angst gänzlich auf.
In einem fünften Vorversuch können die Ratten die Taste des Futterpillengebers wieder ohne zusätzlichen Fuss-Schock drücken, wobei wiederum eine Rate von 150-200 Tastenbetätigungen pro Stunde erreicht wird.
In einem sechsten Vorversuch wird eine Selektion der Testtiere durchgeführt. Den Testtieren werden eine halbe Stunde vor Beginn dieses Vorversuches peroral 10 mg/kg Chlordiazepoxid verabreicht; jede Pillenbelohnung wird wiederum mit einem Fuss-Schock kombiniert (Konflikt). Nur Ratten, die in diesem Vorversuch eine Rate von 20-50 Tastenbetätigungen erreichen (vgl. die 5-10 Tastenbetätigungen im vierten Vorversuch) werden als geeignete Testtiere für die Prüfung von potentiellen Anxiolytika behalten. Die Eliminationsrate in diesem Vorversuch beträgt 5%.
Im Hauptversuch werden zur Prüfung der potentiellen Anxiolytika pro Substanz und pro Dosis in der Regel 8 Ratten eingesetzt. Eine unbehandelte Kontrollgruppe ist nicht erforderlich, da jedes Tier als seine eigene Kontrolle dient. Die Testsubstanzen, welche in einem Gemisch von destilliertem Wasser (10 ml) und Tween 80 (2 Tropfen) gelöst oder suspendiert sind, werden den Tieren mit Hilfe einer Schlundsonde eine halbe Stunde vor dem einstündigen Hauptversuch verabreicht. […]

Maus [1] = test: Chimney test; details: Kamintest, bis zu einer Dosis von 300 mg/kg
Description: (§1) Bei den oben genannten Versuchen handelt es sich um allgemein bekannte Standardmethoden zur Bestimmung von sedierender und muskelrelaxierender Wirkung.

Maus [2] = test: Antipentetrazole test; details: Antipentetrazoltest, bis zu einer Dosis von 300 mg/kg
Description: as §1

Maus [3] = test: Rotating rod test; details: Versuch am Rotierstab, bis zu einer Dosis von 300 mg/kg
Description: as §1

Maus [4] = test: 3-Mercaptopropionic acid test; details: Mus musculus, 3-Mercaptopropionsäure-Test
Description: as §1

Maus [5] = test: Maximal electroshock test; details: Mus musculus, maximaler Elektroschock

SMILES | minimal effective dose (Füllinsdorfer Ratten) | Aktivität (Maus [1]) | Aktivität (Maus [2]) | Aktivität (Maus [3]) | ED50 (Maus [4]) | ED50 (Maus [5])
CN1CC(=O)N=C1NC(=O)Nc1ccsc1 [1-(1-Methyl-4-oxo-2-imidazolin-2-yl)-3-(3-thienyl)harnstoff] | 10 mg/kg | – | – | – | – | –
CN1CC(=O)N=C1NC(=O)Nc1csc(Cl)c1 [1-(5-Chlor-3-thienyl)-3-(1-methyl-4-oxo-2-imidazolin-2-yl)harnstoff] | 3 mg/kg | keinerlei Aktivität | keinerlei Aktivität | keinerlei Aktivität | 76 mg/kg | > 100 mg/kg
CN1CC(=O)N=C1NC(=O)Nc1cccs1 [1-(1-Methyl-4-oxo-2-imidazolin-2-yl)-3-(2-thienyl)harnstoff] | 30 mg/kg | – | – | – | – | –
